From ChEMBL document CHEMBL5634117 (Eur J Med Chem, 2023)
Active and inactive are the calls of the source. No cut-off for these calls is given here.

Assays:
[1] = system: K562; assay: Growth inhibition of human K562 cells assessed as reduction in cell viability measured after 48 hrs by SRB assay; format: functional
[2] = system: SR; assay: Growth inhibition of human SR cells assessed as reduction in cell viability measured after 48 hrs by SRB assay; format: functional
[3] = system: HOP-62; assay: Growth inhibition of human HOP-62 cells assessed as reduction in cell viability measured after 48 hrs by SRB assay; format: functional
[4] = system: NCI-H23; assay: Growth inhibition of human NCI-H23 cells assessed as reduction in cell viability measured after 48 hrs by SRB assay; format: functional
[5] = system: NCI-H322M; assay: Growth inhibition of human NCI-H322M cells assessed as reduction in cell viability measured after 48 hrs by SRB assay; format: functional
[6] = system: HCT-116; assay: Growth inhibition of human HCT-116 cells assessed as reduction in cell viability measured after 48 hrs by SRB assay; format: functional
[7] = system: SNB-75; assay: Growth inhibition of human SNB-75 cells assessed as reduction in cell viability measured after 48 hrs by SRB assay; format: functional
[8] = system: U-251; assay: Growth inhibition of human U-251 cells assessed as reduction in cell viability measured after 48 hrs by SRB assay; format: functional
[9] = system: UACC-257; assay: Growth inhibition of human UACC-257 cells assessed as reduction in cell viability measured after 48 hrs by SRB assay; format: functional
[10] = system: OVCAR-3; assay: Growth inhibition of human OVCAR-3 cells assessed as reduction in cell viability measured after 48 hrs by SRB assay; format: functional
[11] = system: OVCAR-4; assay: Growth inhibition of human OVCAR-4 cells assessed as reduction in cell viability measured after 48 hrs by SRB assay; format: functional
[12] = system: OVCAR-5; assay: Growth inhibition of human OVCAR-5 cells assessed as reduction in cell viability measured after 48 hrs by SRB assay; format: functional
[13] = system: SK-OV-3; assay: Growth inhibition of human SK-OV-3 cells assessed as reduction in cell viability measured after 48 hrs by SRB assay; format: functional
[14] = system: SN12C; assay: Growth inhibition of human SN12C cells assessed as reduction in cell viability measured after 48 hrs by SRB assay; format: functional
[15] = system: UO-31; assay: Growth inhibition of human UO-31 cells assessed as reduction in cell viability measured after 48 hrs by SRB assay; format: functional
[16] = system: MDA-MB-468; assay: Growth inhibition of human MDA-MB-468 cells assessed as reduction in cell viability measured after 48 hrs by SRB assay; format: functional
[17] = target: Mitogen-activated protein kinase 10 (Homo sapiens, UniProt P53779); assay: Inhibition of human JNK3 at 10 uM in presence of ATP relative to control
[18] = system: K562; assay: Induction of cell cycle arrest in human K562 cells assessed as accumulation of cells at G2/M phase at 0.64 uM measured after 24 hrs by PI staining based flow cytometry analysis (reference value: 29.09%); format: functional
[19] = system: K562; assay: Induction of cell cycle arrest in human K562 cells assessed as accumulation of cells at G2/M phase at 2.56 uM measured after 24 hrs by PI staining based flow cytometry analysis (reference value: 29.09%); format: functional
[20] = system: K562; assay: Induction of cell cycle arrest in human K562 cells assessed as accumulation of cells at S phase at 1.28 uM measured after 24 hrs by PI staining based flow cytometry analysis (reference value: 21.74%); format: functional
[21] = system: K562; assay: Induction of cell cycle arrest in human K562 cells assessed as accumulation of cells at S phase at 2.56 uM measured after 24 hrs by PI staining based flow cytometry analysis (reference value: 21.74%); format: functional
[22] = system: K562; assay: Induction of cell cycle arrest in human K562 cells assessed as accumulation of cells at G2/M phase at 2.5 uM measured after 24 hrs by PI staining based flow cytometry analysis (reference value: 29.44%); format: functional
[23] = system: K562; assay: Induction of cell cycle arrest in human K562 cells assessed as accumulation of cells at G0/G1 phase at 1.25 uM measured after 24 hrs by PI staining based flow cytometry analysis (reference value: 46.67%); format: functional
[24] = system: K562; assay: Induction of cell cycle arrest in human K562 cells assessed as accumulation of cells at G0/G1 phase at 2.5 uM measured after 24 hrs by PI staining based flow cytometry analysis (reference value: 46.67%); format: functional
[25] = system: K562; assay: Induction of cell cycle arrest in human K562 cells assessed as accumulation of cells at SubG1 phase at 2.5 uM measured after 24 hrs by PI staining based flow cytometry analysis (reference value: 3.43%); format: functional
[26] = system: K562; assay: Induction of apoptosis in human K562 cells assessed as early apoptotic cells at 2.56 uM incubated for 24 hrs by annexinV and propidium iodide staining based flow cytometry analysis (reference value: 0.42%); format: functional
[27] = system: K562; assay: Induction of apoptosis in human K562 cells assessed as late apoptotic cells at 2.56 uM incubated for 24 hrs by annexinV and propidium iodide staining based flow cytometry analysis (reference value: 1.34%); format: functional
[28] = system: K562; assay: Induction of apoptosis in human K562 cells assessed as early apoptotic cells at 1.25 uM incubated for 24 hrs by annexinV and propidium iodide staining based flow cytometry analysis (reference value: 0.42%); format: functional
[29] = system: K562; assay: Induction of apoptosis in human K562 cells assessed as early apoptotic cells at 5 uM incubated for 24 hrs by annexinV and propidium iodide staining based flow cytometry analysis (reference value: 0.42%); format: functional
[30] = system: K562; assay: Induction of apoptosis in human K562 cells assessed as late apoptotic cells at 5 uM incubated for 24 hrs by annexinV and propidium iodide staining based flow cytometry analysis (reference value: 1.342%); format: functional
[31] = system: K562; assay: Induction of autophagy in human K562 cells assessed as increase in beclin-1 level at 1.28 uM measured after 24 hrs by Western blotting analysis; format: functional, cell-based
[32] = Cytotoxicity against African green monkey Vero cells assessed as decrease in population of viable cells at 0 to 10 uM measured after 48 hrs by SRB assay relative to control; format: toxicity, cell-based; conditions: chlorocebus sabaeus, dose 0-10 µM
[33] = system: K562; assay: Induction of cell cycle arrest in human K562 cells assessed as accumulation of cells at G2/M phase at 1.28 uM measured after 24 hrs by PI staining based flow cytometry analysis (reference value: 25.62%); format: functional
[34] = system: K562; assay: Induction of cell cycle arrest in human K562 cells assessed as accumulation of cells at G2/M phase at 2.56 uM measured after 24 hrs by PI staining based flow cytometry analysis (reference value: 25.62%); format: functional
[35] = system: K562; assay: Induction of cell cycle arrest in human K562 cells assessed as accumulation of cells at S phase at 1.28 uM measured after 24 hrs by PI staining based flow cytometry analysis (reference value: 24.75%); format: functional
[36] = system: K562; assay: Induction of cell cycle arrest in human K562 cells assessed as accumulation of cells at S phase at 2.56 uM measured after 24 hrs by PI staining based flow cytometry analysis (reference value: 24.75%); format: functional
[37] = system: K562; assay: Induction of cell cycle arrest in human K562 cells assessed as accumulation of cells at G0/G1 phase at 2.56 uM measured after 24 hrs by PI staining based flow cytometry analysis (reference value: 46.72%); format: functional

Sequence of Mitogen-activated protein kinase 10 (P53779 whole entry): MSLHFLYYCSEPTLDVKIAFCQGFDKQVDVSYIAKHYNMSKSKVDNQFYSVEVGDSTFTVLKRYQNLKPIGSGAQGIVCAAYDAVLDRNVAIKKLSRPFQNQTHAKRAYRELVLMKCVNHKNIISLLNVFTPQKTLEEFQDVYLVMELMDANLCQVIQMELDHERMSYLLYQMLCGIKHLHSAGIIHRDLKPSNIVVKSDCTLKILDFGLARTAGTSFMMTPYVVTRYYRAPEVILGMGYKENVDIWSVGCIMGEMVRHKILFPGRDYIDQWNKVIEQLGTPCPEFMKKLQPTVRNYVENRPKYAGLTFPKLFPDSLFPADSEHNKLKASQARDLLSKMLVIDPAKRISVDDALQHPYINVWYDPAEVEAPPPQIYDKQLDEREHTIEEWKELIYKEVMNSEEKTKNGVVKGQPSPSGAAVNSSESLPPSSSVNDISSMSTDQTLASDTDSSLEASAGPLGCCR

SMILES	GI50 [1]	GI50 [2]	GI50 [3]	GI50 [4]	GI50 [5]	GI50 [6]	GI50 [7]	GI50 [8]	GI50 [9]	GI50 [10]	GI50 [11]	GI50 [12]	GI50 [13]	GI50 [14]	GI50 [15]	GI50 [16]	inhibition [17]	also measured
CC(C)(C)n1cc(-c2ccnc(NCCCNS(=O)(=O)c3ccc(C(F)(F)F)cc3)c2)c(-c2cccc(O)c2)n1	2100 nM	2210 nM	1930 nM	1670 nM	2070 nM	1550 nM	1940 nM	1710 nM	2070 nM	1960 nM	2290 nM	1810 nM	2690 nM	1610 nM	1580 nM	1880 nM	98.6%	–
O=C1c2ccccc2-c2n[nH]c3cccc1c23	48600 nM	13100 nM	69300 nM	23800 nM	25000 nM	44600 nM	16900 nM	23100 nM	29500 nM	15300 nM	31900 nM	24400 nM	21000 nM	14800 nM	10500 nM	–	–	Activity [18]: 48.84%; Activity [19]: 37.88%; Activity [20]: 16.61%; Activity [21]: 21.55%; Activity [22]: 45.34%; Activity [23]: 34.01%; Activity [24]: 30.88%; Activity [25]: 4.35%; Activity [26]: 1.05%; Activity [27]: 3.7%; Activity [28]: 0.72%; Activity [29]: 1.5%; Activity [30]: 4.12%
CC(C)(C)n1cc(-c2ccnc(NCCCNS(=O)(=O)c3ccc(Br)cc3)c2)c(-c2cccc(O)c2)n1	2020 nM	2000 nM	2050 nM	1830 nM	2310 nM	1310 nM	1760 nM	1650 nM	2010 nM	2150 nM	1910 nM	1870 nM	2520 nM	1610 nM	1660 nM	2100 nM	99.2%	–
CC(C)(C)n1cc(-c2ccnc(NCCCNS(=O)(=O)c3cccc4ccccc34)c2)c(-c2cccc(O)c2)n1	1480 nM	1400 nM	1830 nM	1780 nM	2660 nM	1400 nM	1880 nM	1730 nM	2070 nM	2060 nM	1920 nM	1980 nM	2630 nM	1730 nM	2260 nM	2040 nM	98.7%	–
CC(C)(C)n1cc(-c2ccnc(NCCCNS(=O)(=O)c3ccc(Cl)cc3)c2)c(-c2cccc(O)c2)n1	1280 nM	1750 nM	1740 nM	1680 nM	2460 nM	1670 nM	1370 nM	1620 nM	1860 nM	1890 nM	1940 nM	1570 nM	2350 nM	1650 nM	1890 nM	1800 nM	99.2%	Activity [31]: Active; Activity [32]: 68%; Activity [33]: 58.95%; Activity [34]: 94.29%; Activity [35]: 32.68%; Activity [36]: 4.89%; Activity [37]: 0.17%
